For data set [1], the system named is Trypanosoma cruzi. The experiment in a line: (§1) DNDI: Chagas in Vitro. Format: functional, organism-based, Tulahuen C4 (LacZ).
Data set [2] concerns Trypanosoma cruzi. The description is as §1. In kind it is functional, Tulahuen C4 (LacZ).
For data set [3], the target named is Cytochrome P450 3A4 (Homo sapiens, UniProt P08684). Kind of data set: DNDI: Human CYP3A4 inhibition determined using 6b-hydroxylation of testosterone.
A short description of data set [4]: (§2) DNDI: Cytotoxicity in vitro, against rat skeletal myoblast (L-6) cells. The following applies: L-6 cells (skeletal myoblasts), IC50.
Data set [5] concerns Trypanosoma brucei rhodesiense. The experiment in a line: (§3) DNDI: HAT in Vitro. Format: functional, organism-based, ATCC 30027.
Data set [6] can be described thus: (§4) DNDI: Stability, 4 hour. In kind it is ADME, tissue-based. The conditions noted are these: mouse, blood.
A short description of data set [7]: as §4. The conditions noted are these: mouse, plasma. Format: ADME, cell-free.
Data set [8] can be described thus: in vitro. The following applies: human, microsomes.
Data set [9] is described as follows: in vitro. The conditions noted are these: human, microsomes, EH.
Data set [10] is described as follows: in vitro. The following applies: human, microsomes, t (1 / 2).
For data set [11], the system named is Trypanosoma brucei brucei. The description is as §3. Format: functional, organism-based. The conditions noted are these: SBRI 427.
Data set [12] deals with Trypanosoma brucei brucei. Kind of data set: DNDI: HAT in vivo at 50 mg/kg, 4 adm days. Format: functional, EATRO 110 po.
Data set [13] relates to Leishmania infantum. The experiment in a line: DNDI: Leish (macro) in Vitro. In kind it is functional, organism-based, MHOM/MA(BE)/67.
The subject of data set [14] is Leishmania infantum. Kind of data set: DNDI: Leish In Vivo - % inhibition and MSD at 50 mg/kg, 5 days 2x. In kind it is functional, MHOM/MA(BE)/67 Hamster-Early curative model po.
Data set [15] has as its system L6. The description is as §2. The following applies: L-6 cells (skeletal myoblasts).
A short description of data set [16]: DNDI: Lipophilicity (gLogD) at pH 3. The conditions noted are these: buffer, pH 3, logD.
The nature of data set [17]: DNDI: Lipophilicity (gLogD) at pH 7.4. The following applies: buffer, pH 7.4, logD.
Data set [18] can be described thus: DNDI: Metabolism. In kind it is ADME, Microsome. The following applies: rat, microsomes.
Data set [19] can be described thus: DNDI: Solubility in 0.01M HCl at pH 2 determined by nephelometry. The following applies: for solubility kinetic: 0.01M HCl, pH 2, Kinetic.
Data set [20] can be described thus: in vitro. The following applies: rat, microsomes.
A short description of data set [21]: in vitro. The conditions noted are these: rat, microsomes. This is another data set of the same source.
Data set [22] in a line: in vitro. The conditions noted are these: rat, microsomes. This is another data set of the same source.
Data set [23] in a line: DNDI: Solubility in phosphate buffer at pH 6.5 determined by nephelometry. The following applies: for solubility kinetic: phosphate buffer, pH 6.5, Kinetic.
For data set [24] the following is noted: human, microsomes.
The conditions of data set [25]: human, microsomes. This is another data set of the same source.
The conditions of data set [26]: human, microsomes. The source holds these as a separate data set.
The target of data set [27] is T1, CYP3A4 (Homo sapiens, UniProt P08684). Kind of data set: DNDI: Human CYP3A4 inhibition at 1 uM determined using 6b-hydroxylation of testosterone. The conditions noted are these: probe testosterone (6b-hydroxylation).
The target of data set [28] is T1, CYP3A4. Kind of data set: DNDI: Human CYP3A4 inhibition at 10 uM determined using 6b-hydroxylation of testosterone. The conditions noted are these: probe testosterone (6b-hydroxylation).
The nature of data set [29]: in vitro. The following applies: mouse, microsomes.
A short description of data set [30]: in vitro. The following applies: mouse, microsomes. This is another data set of the same source.
Data set [31] can be described thus: in vitro. The following applies: mouse, microsomes. This is another data set of the same source.
Setting [32] is: Trypanosoma cruzi, Tulahuen C4 (LacZ).

Experimental findings from ChEMBL document CHEMBL2448688, “Selection and optimization of hits from a high-throughput phenotypic screen against Trypanosoma cruzi. Exported from HEOS 25-Oct-2013. See also related datasets CHEMBL3137440 and CHEMBL3137386” are described below.

Converted amounts (≈) assume the structure as drawn. “And” between values parts separate entries of the source, which are not always exact repeats. Identical values can stand only once.

One may read the IC50 as the concentration that gives 50% inhibition. The IC90 is the concentration at which the effect reaches the 90% level. Low values mean an effect from little substance, high ones a need for much substance. The fraction remaining is what is left of the initial amount, in per cent. Low values mean a greater loss, high ones greater stability. Broadly, the microsomal CLint is the rate of metabolic loss divided by the concentration. Low readings indicate slow turnover, high ones rapid turnover. As usually defined, the half-life is the time needed for the level to fall by half in the phase considered. A lower half-life goes with fast loss. The term chromatographic logD denotes a lipophilicity value derived from retention on a column. Higher therefore signals higher lipophilicity. The kinetic solubility is solubility judged after dilution from a stock solution rather than from solid. As a reminder, the inhibition is how much of the control response was suppressed.

Cytochrome P450 3A4, sequence (P08684 whole entry): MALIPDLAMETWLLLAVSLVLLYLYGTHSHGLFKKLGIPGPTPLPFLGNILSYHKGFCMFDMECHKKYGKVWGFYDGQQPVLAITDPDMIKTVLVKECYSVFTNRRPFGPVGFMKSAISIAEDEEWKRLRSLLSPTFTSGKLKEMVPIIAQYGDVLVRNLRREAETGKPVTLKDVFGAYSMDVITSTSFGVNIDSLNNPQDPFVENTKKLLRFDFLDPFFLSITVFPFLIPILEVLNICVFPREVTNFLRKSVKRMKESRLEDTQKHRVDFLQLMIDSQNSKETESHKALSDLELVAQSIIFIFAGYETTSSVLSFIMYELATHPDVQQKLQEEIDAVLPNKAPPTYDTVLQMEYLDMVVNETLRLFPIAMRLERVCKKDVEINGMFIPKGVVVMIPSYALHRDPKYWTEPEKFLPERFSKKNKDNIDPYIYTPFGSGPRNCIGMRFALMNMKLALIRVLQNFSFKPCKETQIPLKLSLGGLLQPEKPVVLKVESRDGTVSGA
T1 sequence (P08684 whole entry): as above

`CCOC(=O)c1ccc(-n2ccnc2)c(NC(=O)c2cnc(-c3ccccc3)nc2)c1`: the half-maximal inhibitory concentration (IC50) in [1] (setting [32]) was 3 nM; in data set [3], above 20000 nM; in data set [4], above 100000 nM; in data set [5] (Trypanosoma brucei, ATCC 30027), above 10000 nM. The IC90 in data set [2] (setting [32]) came out at 37 nM. Besides, the share remaining at 4 h in [6] is 0.4%; in data set [7] it was 1.8%. The same compound registered a microsomal CLint in data set [8] of 11 µL/min/mg. Moreover, the hepatic extraction ratio in data set [9] came to 0.38. The half-life in data set [10] came out at 2.67 h.
For `CN1CCC(NCC(O)COc2ccc3cc(Br)ccc3c2)CC1` (stereo not drawn), the IC50 in data set [1] was 853 nM and 3660 nM and 1930 nM; in data set [11], 53 nM; in [5], 28 nM and 74.5 nM and 57 nM; in [13], 426 nM and 198 nM and 500 nM. Further, the 90% effect concentration (IC90) in data set [2] is 5670 nM and > 1000 nM and 8200 nM. Further, in data set [12], the MSD is 7 days. The “% inhibition in bone-marrow” value in data set [14] is reported as 41.4%. Also, in data set [14], the “% inhibition in liver” value is recorded as 26.8%. Further, the “% inhibition in spleen” value in data set [14] is listed as 44.9%.
Regarding `CO/N=C(\C)c1ccc(-n2ccnc2)c(NC(=O)c2ccc(-c3ccccn3)s2)c1`, the IC90 in data set [2] was > 100 nM and 12.8 nM. The concentration for half-maximal inhibition (IC50) in [3] was determined as 2000 nM; in data set [4], 65600 nM; in data set [15], 72500 nM. Besides, the chromatographic logD in [16] turned out to be 2.3; in [17], 3.1. In addition, in [18], the CLblood is 42 mL/min/kg. Besides, the solubility (kinetic) in data set [19] is above 100 µg/mL. Moreover, the intrinsic clearance (microsomal CLint) in [8] is 30 µL/min/mg; in [21], 64 µL/min/mg. For the same compound, the hepatic extraction ratio in data set [9] turned out to be 0.54; in data set [22], 0.62. Moreover, the half-life in data set [10] is 0.95 h; in data set [20], 0.45 h.
Consider `CC(=O)N(Cc1cccnc1)c1ccc(-c2nc3ccccc3s2)cc1`, for which the chromatographic logD in [16] is 2.18; in data set [17] it was above 3.94. The solubility (kinetic) worked out at 71 µg/mL (≈ 198 µM) in data set [19] and 11.9 µg/mL (≈ 33 µM) in [23]. In [24], this compound had a CLint in vitro of 72 µL/min/mg. This compound also had an EH in data set [25] of 0.74 none. In [26], the “t (1 / 2)” value is 24 min. The microsomal CLint in [8] was determined as 98.3 µL/min/mg. The half-life in data set [10] stood at 0.293 h.
Regarding `Cl.NCC(=O)N(Cc1cccnc1)c1cc(F)cc(-c2nc3ccccc3s2)c1`, the results for the half-inhibitory concentration (IC50) in data set [1] (setting [32]) and in [4] were 49 nM and above 100000 nM, respectively. For the same compound, the IC90 in data set [2] (setting [32]) amounted to 125 nM. The same compound registered a chromatographic logD in data set [17] of 2.29. The solubility (kinetic) stood at 57.5 µg/mL in data set [19] and 53 µg/mL in data set [23]. The Kinetic was above 100 µg/mL in data set [19] (buffer, pH 2) and above 100 µg/mL in data set [23] (buffer, pH 6.5). The CLint in vitro in [24] is 66 µL/min/mg and 30 µL/min/mg. The compound further showed an EH in data set [25] of 0.54 none. Also, the “t (1 / 2)” value in data set [26] is 58 min and 26.3 min.
Turning to `CC(=O)N(Cc1c[nH]cn1)c1ccc(-c2nc3ccccc3s2)cc1`, the results for the concentration for half-maximal inhibition (IC50) in [1] (setting [32]), in data set [3] and in data set [4] were 13.5 nM, above 10000 nM and 63400 nM, respectively. Further, it took 27 nM to reach the 90% level in data set [2] (setting [32]) (IC90). Further, the inhibition at 1 µM in data set [27] is 0.3%. In addition, at 10 µM the inhibition in [28] was 28.1%. Moreover, the chromatographic logD in data set [16] was found to be 1.6; in [17], 2.1. In addition, the kinetic solubility in data set [19] is above 100 µg/mL. Moreover, the microsomal CLint came out at 14 µL/min/mg in data set [8] and 21 µL/min/mg in data set [29]. Moreover, the hepatic extraction ratio was 0.35 in [9] and 0.32 in data set [30]. In addition, the half-life was 2.05 h in data set [10] and 1.35 h in data set [31].
